Measurements published in patent publication US5962640A, “Methods for preparing novel dipeptide compounds or pharmacuetically acceptable salts thereof” (Japan Energy Corporation, priority 1995, dated 1999).
In brackets after ≈: the same amount, converted by molar mass.

Legend:
Recombinant HIV protease = molecular target: T1, Recombinant HIV protease (Human immunodeficiency virus type 1 group M subtype B, UniProt P04585); assay: HIV protease inhibitory activity (cleavage of synthetic hepta-peptide, HPLC); assay type: biochemical; conditions: for inhibition at 0.05 µM / HIV protease inhibitory activity (%): 37° C., 60 min; for inhibition at 5 µM: read-out: HIV protease inhibitory activity (%)
T1 construct: Recombinant HIV protease
Protocol: Recombinant HIV protease (Biochemistry, 250 (9), 264 (1990)) and synthetic hepta-peptide (H-Ser-Gln-Asn-Tyr-Pro-Ile-Val-OH/trifluoroacetic acid salt) were used for assay of protease activity. Peptide fragment H-Pro-Ile-Val-OH formed by cleavage between -Tyr . . . Pro of said substrate after a reaction in the presence of various concentration of tested compound at 37° C. for 60 min. was determined by reversed phase HPLC and the inhibitory rate was calculated (referred to Japanese laid-open unexamined patent, No. 170722/1993).
The concentration of tested compound represents the final concentration thereof of the reaction mixture.

HTLV-IIIB virus = assay: Anti-HIV activity: protection of HTLV-IIIB infected MT-4 cells, MTT method; assay type: cell-based; conditions: MT-4 cells infected with HTLV-IIIB, 5 day culture; for EC50: Human immunodeficiency virus 1, MT4, 120 h
Protocol: The anti-HIV activity of the dipeptide compound of the present invention was evaluated as described below. That is, the inhibitory action of the compound on formation of HIV virus particles which infects T lymphocyte was evaluated by potency to prevent death of T lymphocyte accompanied by said virus infection.
(§1) According to a test method which was already reported in publications (H.Nakashima et al., Antimicrob. Agents Chemother.36, 1249-1255 (1992), etc.,), anti-HIV activity was evaluated, by using MT-4 cell line and HTLV-IIIB virus, MT-4 cells (2.5×10^4 well, MOI:001) infected with said HTLV-IIIB virus just before the addition were into 96-well microtiter plate wherein each well contained various concentration of tested compound. At the same time, in order to investigate cytotoxicity of tested compounds to MT-4 cell line, non-infected MT-4 cell line was cultured in the presence of various kinds of tested compound. After 5 day culture at 37° C. in a CO2 incubator, the number of vial cells was counted by MTT method.
Virus whose infectious value was 3.8×10^4 TCID 50/ml was used.

MT-4 cell line = assay: Cytotoxicity to non-infected MT-4 cell line, MTT method; assay type: cell-based; conditions: non-infected MT-4 cells, 5 day culture
Protocol: as §1, with “method. […]” for “method.”

[1] = Pharmacokinetics in rats, intravenous or intraduodenal administration, plasma concentration; assay type: in vivo
Protocol: Metabolic characteristics of the dipeptide compounds of the present invention was evaluated using rats. Tested compounds dissolved in vehicle was administered intraduodenally or intravenously. After administration, blood was taken and the concentration of residual tested compound in plasma was analyzed. The dosage of the tested compound was described in table 3.

SMILES	inhibition at 0.05 µM (Recombinant HIV protease; concentration 50 nM (final)) [%]	inhibition at 5 µM (Recombinant HIV protease) [%]	EC50 (HTLV-IIIB virus) [µg/mL]	Cytotoxicity CC50 (MT-4 cell line) [µg/mL]	AUC ([1]; i.d., 10.0 mg/kg) [µg/mL/min]	AUC ([1]; i.v., 10.0 mg/kg) [µg/mL/min]	Anti-HIV activity EC50 (HTLV-IIIB virus) [µg/mL]	AUC ([1]; i.d., 20.0 mg/kg) [µg/mL/min]	HIV protease inhibitory activity (%) (Recombinant HIV protease; concentration 50 nM (final))	HIV protease inhibitory activity (%) (Recombinant HIV protease; concentration 5 μM (final))	MRT ([1]; i.v., 10.0 mg/kg) [h]
Cc1ccccc1CNC(=O)[C@@H]1CSCN1C(=O)[C@@H](O)[C@H](Cc1ccccc1)NC(=O)c1cccc(O)c1C [Compound of example 34, (R)-N-(2-methylbenzyl)-3-[(2S,3S)-3-(3-hydroxy-2-methylbenzoyl)amino-2-hydroxy-4-phenylbutanoyl]-1,3-thiazolidine-4-carboxamide]	69.8	96.7	5.35 (≈ 9.77 µM)	24.5	40	124	–	–	–	–	–
CCc1c(O)cccc1C(=O)N[C@@H](Cc1ccccc1)[C@H](O)C(=O)N1CSC(C)(C)[C@H]1C(=O)NC(C)(C)C [Compound of example 36, (R)-N-tert-butyl-3-[(2S,3S)-3-(2-ethyl-3-hydroxybenzoyl)amino-2-hydroxy-4-phenylbutanoyl]-5,5-dimethyl-1,3-thiazolidine-4-carboxamide]	83.5	> 99	0.54 (≈ 0.997 µM)	103	64	174	–	–	–	–	–
Cc1c(O)cccc1C(=O)N[C@@H](Cc1ccccc1)[C@H](O)C(=O)N1CSC[C@H]1C(=O)NC(C)(C)C [Compound of example 21, (R)-N-tert-butyl-3-[(2S,3S)-2-hydroxy-3-[3-hydroxy-2-methylbenzoy 1]amino-4-phenylbutanoyl]-1,3-thiazolidine-4-carboxamide]	–	–	–	184	–	111	0.70	101	–	–	–
Cc1c(O)cccc1C(=O)N[C@@H](Cc1ccccc1)[C@H](O)C(=O)N1CSC(C)(C)[C@H]1C(=O)NC(C)(C)C [Compound of example 22, (R)-N-tert-butyl-3-[(2S,3S)-2-hydroxy-3-[3-hydroxy-2-methylbenzoy 1]amino-4-phenylbutanoyl]-5,5-dimethyl-1,3-thiazolidine-4-carboxamide]	–	–	–	156	–	111	0.15	106	87.6	99.0	–
CCc1c(O)cccc1C(=O)N[C@@H](Cc1ccccc1)[C@H](O)C(=O)N1CSC[C@H]1C(=O)NC(C)(C)C [Compound of example 31, (R)-N-tert-butyl-3-[(2S,3S)-2-hydroxy-3-(2-ethyl-3-hydroxybenzoyl)amino-4-phenylbutanoyl]-1,3-thiazolidine-4-carboxamide]	45.6	97.5	1.46 (≈ 2.84 µM)	168	99	276	–	–	–	–	1.6
CSC[C@H](NC(=O)COc1cccc2cnccc12)C(=O)N[C@@H](Cc1ccccc1)[C@H](O)C(=O)N1CSC[C@H]1C(=O)NC(C)(C)C [KNI-272, (R)-3-[(2S,3S)-3-(N-(isoquinoline-5-yloxy)acetyl-methylthio-L-alanyl)amino-2-hydroxy-4-phenylbutanoyl]1,3-thiazolidine-4-N'-t-butylcarboxamide, reference compound]	–	–	–	115	98	224	0.21	–	–	–	–
Cc1c(O)cccc1C(=O)N[C@@H](Cc1ccccc1)[C@H](O)C(=O)N1CO[C@H](C)[C@H]1C(=O)NC(C)(C)C [Compound of example 30, (4S,5R)-N-tert-butyl-3-[(2S,3S)-2-hydroxy-3-(2-methyl-3-hydroxybenzoyl)amino-4-phenylbutanoyl]-5-methyl-1,3-oxazolidine-4-carboxamide]	21.5	96.9	1.4 (≈ 2.81 µM)	191	–	–	–	–	–	–	–
CCc1c(O)cccc1C(=O)N[C@@H](Cc1ccccc1)[C@H](O)C(=O)N1CSC(C)(C)[C@H]1C(=O)NCc1ccccc1C [Compound of example 38, (R)-N-(2-methylbenzyl)-3-[(2S,3S)-3-(2-ethyl-3-hydroxybenzoyl)amino-2-hydroxy-4-phenylbutanoyl]-5,5-dimethyl-1,3-thiazolidine-4-carboxamide]	97.3	> 99	0.18 (≈ 0.305 µM)	19.5	–	–	–	–	–	–	–
